Test results taken from ChEMBL document CHEMBL3885881, “DrugMatrix”.

Species: Rattus norvegicus
Assay: DrugMatrix - Regimen: Daily Repeat
Type: toxicity, organism-based, Sprague-Dawley
Design: regimen Daily Repeat, gender Male, age 6-8 weeks
Conditions: in vivo, po, route oral GAVAGE, vehicle 100 % SALINE; for ABSOLUTE BASOPHIL / ABSOLUTE EOSINOPHIL / ABSOLUTE LYMPHOCYTE / ABSOLUTE MONOCYTE / ABSOLUTE SEGMENTED NEUTROPHIL / BASOPHIL / EOSINOPHIL / ERYTHROCYTE COUNT / HEMATOCRIT / HEMOGLOBIN / LEUKOCYTE COUNT / LYMPHOCYTE / MEAN CORPUSCULAR HEMOGLOBIN / MEAN CORPUSCULAR HEMOGLOBIN CONCENTRATION / MEAN CORPUSCULAR VOLUME / MONOCYTE / NEUTROPHIL / NUCLEATED RED BLOOD CELLS / PLATELET COUNT: tissue Blood; for ALANINE AMINOTRANSFERASE / ALBUMIN / ALKALINE PHOSPHATASE / ASPARTATE AMINOTRANSFERASE / BLOOD UREA NITROGEN / CARBON DIOXIDE / CHLORIDE / CHOLESTEROL / CREATINE PHOSPHOKINASE / CREATININE / GLUCOSE / LACTATE DEHYDROGENASE / LIPASE / PHOSPHORUS / POTASSIUM / SODIUM / TOTAL BILIRUBIN / TOTAL PROTEIN / URIC ACID: tissue Plasma
[1] = 0 mg/kg, 72 h, dose level Control, time 3 day
[2] = 0 mg/kg, 120 h, dose level Control, time 5 day
[3] = 59 mg/kg, 72 h, dose level Low, time 3 day

In the case of NC(=O)NO [HYDROXYUREA], the “ABSOLUTE BASOPHIL” value [1] is reported as 0 CELLS/uL, the “ABSOLUTE EOSINOPHIL” value [1] is reported as 16.17 CELLS/uL and the “ABSOLUTE LYMPHOCYTE” value [1] is reported as 9117 CELLS/uL. The “ABSOLUTE MONOCYTE” value [1] was 16.17 CELLS/uL, the “ABSOLUTE SEGMENTED NEUTROPHIL” value [1] was 484 CELLS/uL and the BASOPHIL [1] was 0%. The EOSINOPHIL [1] was 0.17%, the “ERYTHROCYTE COUNT” value [1] was 5.19 x10E6/uL and the HEMATOCRIT [1] was 34.9%. The HEMOGLOBIN [1] was 13.35 G/DL, the “LEUKOCYTE COUNT” value [1] was 9.63 x10E3/uL and the LYMPHOCYTE [1] was 94.5%. The “MEAN CORPUSCULAR HEMOGLOBIN” value [1] was 25.72 pg, the “MEAN CORPUSCULAR HEMOGLOBIN CONCENTRATION” value [1] was 38.25 G/DL and the “MEAN CORPUSCULAR VOLUME” value [1] was 67.22 fL. The MONOCYTE [1] was 0.17%, the NEUTROPHIL [1] was 5.17% and the “NUCLEATED RED BLOOD CELLS” value [1] was 0.33 /100WBC. For the same molecule, the “PLATELET COUNT” value [1] was 1142 x10E3/uL, the “ALANINE AMINOTRANSFERASE” value [1] was 47.33 u/L and the ALBUMIN [1] was 4.13 G/DL. The “ALKALINE PHOSPHATASE” value [1] was 320.33 u/L, the “ASPARTATE AMINOTRANSFERASE” value [1] was 76.17 u/L and the “BLOOD UREA NITROGEN” value [1] was 12.67 mg/dL. For the same molecule, the “CARBON DIOXIDE” value [1] was 30.83 mmol/L, the CHLORIDE [1] was 99 MEQ/L and the CHOLESTEROL [1] was 74.17 mg/dL. For the same molecule, the “CREATINE PHOSPHOKINASE” value [1] was 271 u/L, the CREATININE [1] was 0.15 mg/dL and the GLUCOSE [1] was 150.5 mg/dL. The “LACTATE DEHYDROGENASE” value [1] was 92.67 u/L, the LIPASE [1] was 10 u/L and the PHOSPHORUS [1] was 10.67 mg/dL. For the same molecule, the POTASSIUM [1] was 5.78 MEQ/L, the SODIUM [1] was 142.83 MEQ/L and the “TOTAL BILIRUBIN” value [1] was 0.1 mg/dL. The “TOTAL PROTEIN” value [1] was 6.18 G/DL, the “URIC ACID” value [1] was 0.65 mg/dL and the “ABSOLUTE BASOPHIL” value [2] was 0 CELLS/uL. The “ABSOLUTE EOSINOPHIL” value [2] was 0 CELLS/uL, the “ABSOLUTE LYMPHOCYTE” value [2] was 8222.33 CELLS/uL and the “ABSOLUTE MONOCYTE” value [2] was 89.67 CELLS/uL. For the same molecule, the “ABSOLUTE SEGMENTED NEUTROPHIL” value [2] was 471.33 CELLS/uL, the BASOPHIL [2] was 0% and the EOSINOPHIL [2] was 0%. The “ERYTHROCYTE COUNT” value [2] was 5.13 x10E6/uL, the HEMATOCRIT [2] was 33.47% and the HEMOGLOBIN [2] was 12.97 G/DL. For the same molecule, the “LEUKOCYTE COUNT” value [2] was 8.78 x10E3/uL, the LYMPHOCYTE [2] was 93% and the “MEAN CORPUSCULAR HEMOGLOBIN” value [2] was 25.3 pg. For the same molecule, the “MEAN CORPUSCULAR HEMOGLOBIN CONCENTRATION” value [2] was 38.77 G/DL, the “MEAN CORPUSCULAR VOLUME” value [2] was 65.23 fL and the MONOCYTE [2] was 1%. For the same molecule, the NEUTROPHIL [2] was 6%, the “NUCLEATED RED BLOOD CELLS” value [2] was 0 /100WBC and the “PLATELET COUNT” value [2] was 1298.5 x10E3/uL. The “ALANINE AMINOTRANSFERASE” value [2] was 56 u/L, the ALBUMIN [2] was 3.98 G/DL and the “ALKALINE PHOSPHATASE” value [2] was 321.67 u/L. For the same molecule, the “ASPARTATE AMINOTRANSFERASE” value [2] was 99.17 u/L, the “BLOOD UREA NITROGEN” value [2] was 13.8 mg/dL and the “CARBON DIOXIDE” value [2] was 29 mmol/L. The CHLORIDE [2] was 98.67 MEQ/L, the CHOLESTEROL [2] was 59.67 mg/dL and the “CREATINE PHOSPHOKINASE” value [2] was 363 u/L. The CREATININE [2] was 0.24 mg/dL, the GLUCOSE [2] was 167.83 mg/dL and the “LACTATE DEHYDROGENASE” value [2] was 120.83 u/L. The LIPASE [2] was 22.5 u/L, the PHOSPHORUS [2] was 11.6 mg/dL and the POTASSIUM [2] was 5.62 MEQ/L. The SODIUM [2] was 143 MEQ/L, the “TOTAL BILIRUBIN” value [2] was 0.17 mg/dL and the “TOTAL PROTEIN” value [2] was 5.95 G/DL. The “URIC ACID” value [2] was 0.87 mg/dL, the “ABSOLUTE BASOPHIL” value [3] was 0 CELLS/uL and the “ABSOLUTE EOSINOPHIL” value [3] was 15 CELLS/uL. The “ABSOLUTE LYMPHOCYTE” value [3] was 4978 CELLS/uL, the “ABSOLUTE MONOCYTE” value [3] was 44 CELLS/uL and the “ABSOLUTE SEGMENTED NEUTROPHIL” value [3] was 663 CELLS/uL. The BASOPHIL [3] was 0%, the EOSINOPHIL [3] was 0.33% and the “ERYTHROCYTE COUNT” value [3] was 5.08 x10E6/uL. For the same molecule, the HEMATOCRIT [3] was 33.63%, the HEMOGLOBIN [3] was 12.83 G/DL and the “LEUKOCYTE COUNT” value [3] was 5.7 x10E3/uL. For the same molecule, the LYMPHOCYTE [3] was 87.67%, the “MEAN CORPUSCULAR HEMOGLOBIN” value [3] was 25.3 pg and the “MEAN CORPUSCULAR HEMOGLOBIN CONCENTRATION” value [3] was 38.17 G/DL. For the same molecule, the “MEAN CORPUSCULAR VOLUME” value [3] was 66.27 fL, the MONOCYTE [3] was 0.67% and the NEUTROPHIL [3] was 11.33%. For the same molecule, the “NUCLEATED RED BLOOD CELLS” value [3] was 0 /100WBC, the “PLATELET COUNT” value [3] was 1118 x10E3/uL and the “ALANINE AMINOTRANSFERASE” value [3] was 47.33 u/L. For the same molecule, the ALBUMIN [3] was 4.17 G/DL, the “ALKALINE PHOSPHATASE” value [3] was 328 u/L and the “ASPARTATE AMINOTRANSFERASE” value [3] was 73.67 u/L. For the same molecule, the “BLOOD UREA NITROGEN” value [3] was 11.33 mg/dL, the “CARBON DIOXIDE” value [3] was 30 mmol/L and the CHLORIDE [3] was 99 MEQ/L. For the same molecule, the CHOLESTEROL [3] was 75.33 mg/dL, the “CREATINE PHOSPHOKINASE” value [3] was 258 u/L and the CREATININE [3] was 0.2 mg/dL. The GLUCOSE [3] was 152 mg/dL, the “LACTATE DEHYDROGENASE” value [3] was 90 u/L and the LIPASE [3] was 10 u/L. It also gave a PHOSPHORUS [3] of 10.83 mg/dL, a POTASSIUM [3] of 5.95 MEQ/L and an SODIUM [3] of 142.63 MEQ/L. For the same molecule, the “TOTAL BILIRUBIN” value [3] was 0.1 mg/dL, the “TOTAL PROTEIN” value [3] was 6.07 G/DL and the “URIC ACID” value [3] was 0.9 mg/dL.
